According to US20140349297A1, “FLUORESCENT DYES BASED ON ACRIDINE AND ACRIDINIUM DERIVATIVES” (Almac Sciences (Scotland) Limited, priority 2011, published 2014):
Several values for one entry are separate records, joined by “and”; a condition that tells them apart may be missing. Equal values may be shown once. Where a name gives a salt, the structure may show the parent alone.

Key:
[1] = Fluorescence emission profile as a function of pH; format: physicochemical; details: excitation 405 nm
Description: The fluorescence emission profile was measured as a function of pH upon excitation at 405 nm (FIG. 3).

[2] = pH stability of fluorescence lifetime; format: physicochemical; details: 1 μM in 20 mM sodium phosphate buffer
Description: 1 μM solutions of 9,10-dimethylacridin-10-ium methyl sulfate in 20 mM sodium phosphate buffer were prepared using 0.2 M monobasic sodium phosphate and 0.2 M dibasic sodium phosphate buffer mixtures, 0.1 M HCl solution was used to adust the pH to <6 and 0.1 M NaOH solution was used to adjust the pH to >8;
An important criteria of fluorescence dyes suitable for use in biochemical and cell-based assays is the advantageousness of the fluorescence lifetime being independent of pH in the physiological range 5 to 9.

[3] = reported, Tanaka et al. 2001; cited from earlier work
[4] = Fluorescence lifetimes of acridine derivatives by TCSPC (Table 1); format: physicochemical; details: excitation 405 nm
Description: Fluorescence lifetimes were determined by time-correlated single photon counting (TCSPC) acquisition using an Edinburgh Instruments Nanotaurus fluorescence lifetime platereader, using excitation laser 405 nm and either a 438 nm band pass, 450 nm band pass or 473 nm long pass emission filter for detection.

[5] = Fluorescence analysis of 9,10-dimethylacridin-10-ium methyl sulfate (lifetime decay); format: physicochemical
Description: Measurements were performed in 10 mM PBS pH 7.4, excitation wavelength 350 nm and emission wavelength 490 nm for steady state, and excitation wavelength 405 nm and emission wavelength 473 nm long pass filter for fluorescence lifetime;
Steady state measurements were performed on an Edinburgh Instruments FLS920 steady state fluorimeter, with excitation wavelength of 350 nm and emission wavelength of 490 nm. Fluorescence lifetimes were determined by time-correlated single photon counting (TCSPC) acquisition using an Edinburgh Instruments Nanotaurus fluorescence lifetime platereader, using excitation laser 405 nm and a 473 nm long pass emission filter for detection.
The fluorescence excitation and emission spectra were measured at 1 μM 9,10-dimethylacridin-10-ium methyl sulfate concentration in phosphate buffered saline (PBS) solution pH 7.4. The fluorescence excitation and emission spectra, and fluorescence lifetime decay curve are shown in FIG. 1(a) and FIG. 1(b) respectively. 9,10-Dimethylacridin-10-ium methyl sulfate has an advantageously long fluorescence lifetime of circa 25-30 ns. In addition, the magnitude of the fluorescence lifetime was maintained across the three buffer systems tested (see Table 1, entry 6).

[6] = target: T1, recombinant Lck kinase (Homo sapiens, UniProt P06239); format: biochemical; details: Lck 3.6 mU/well, 1 μM LLD-EPEGIYGVLF substrate; read-out: ATP Km
T1 construct: purchased EnzoLifeSciences
Description: Enzyme: Lck (p56Ick) (EnzoLifeSciences, 18 U/m1), 3.6 mU/well
Enzyme (3.6 mU in 5 μl buffer A) was then added to each well. […] The average lifetime values were converted to pmol phosphopeptide from a standard curve and plots of initial rates of reaction dependent on ATP concentration were used to determine the ATP Km value by non-linear regression fitting using GraphPad Prism (see FIG. 10).

T1 sequence (P06239 whole entry, species assumed): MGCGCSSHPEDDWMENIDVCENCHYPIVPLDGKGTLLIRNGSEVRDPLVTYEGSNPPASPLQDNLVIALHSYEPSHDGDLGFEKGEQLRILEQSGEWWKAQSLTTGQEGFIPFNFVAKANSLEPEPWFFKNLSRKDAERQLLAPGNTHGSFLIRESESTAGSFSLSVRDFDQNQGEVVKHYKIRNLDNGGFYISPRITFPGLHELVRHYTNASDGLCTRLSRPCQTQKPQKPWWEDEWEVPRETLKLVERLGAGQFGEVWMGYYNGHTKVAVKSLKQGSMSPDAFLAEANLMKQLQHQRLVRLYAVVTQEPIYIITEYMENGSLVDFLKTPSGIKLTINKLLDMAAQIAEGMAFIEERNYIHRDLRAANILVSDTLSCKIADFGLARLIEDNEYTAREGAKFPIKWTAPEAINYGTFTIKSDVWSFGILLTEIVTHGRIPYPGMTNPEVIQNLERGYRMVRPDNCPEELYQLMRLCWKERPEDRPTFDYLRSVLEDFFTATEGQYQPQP

emission maximum ([1]; solutions >pH 10) | emission maximum ([1]; solutions at pH 3 to 10) | fluorescence lifetime as a function of pH [2] | Fluorescence Lifetime ([4]; 1 μM in 50 mM AcOH solution) [ns] | Fluorescence Lifetime ([4]; 1 μM in PBS) [ns] | Fluorescence Lifetime ([4]; 1 μM in water) [ns] | fluorescence lifetime (decay curve, FIG. 1b) ([5]; 10 mM PBS pH 7.4, excitation 405 nm, 473 nm long pass emission filter) [ns] | Fluorescence Lifetime ([5]; circa, maintained across the three buffer systems tested) | SMILES | pKa of methyl protons at the 9-position [3] | Km [6] [µM]
425 nm and 450 nm | 460 nm and 490 nm | stable across the pH range 3 to 10 | 29.8 | 26.2 | 30.0 | 26.2 | 25-30 ns | Cc1c2ccccc2[n+](C)c2ccccc12 [Entry 6, 9,10-dimethylacridin-10-ium methyl sulfate] | akin to acetic acid | –
– | – | – | 32.1 | 31.9 | 14.1 | – | – | C[n+]1c2ccccc2cc2ccccc21 [Entry 5] | – | –
– | – | – | 29.1 | 11.7 | 29.1 | – | – | Cc1c2ccccc2nc2ccccc12 [Entry 4] | – | –

Second part, the compound before the results:

SMILES | emission maximum ([1]; solutions >pH 10) | emission maximum ([1]; solutions at pH 3 to 10) | fluorescence lifetime as a function of pH [2] | Fluorescence Lifetime ([4]; 1 μM in 50 mM AcOH solution) [ns] | Fluorescence Lifetime ([4]; 1 μM in PBS) [ns] | Fluorescence Lifetime ([4]; 1 μM in water) [ns] | fluorescence lifetime (decay curve, FIG. 1b) ([5]; 10 mM PBS pH 7.4, excitation 405 nm, 473 nm long pass emission filter) [ns] | Fluorescence Lifetime ([5]; circa, maintained across the three buffer systems tested) | pKa of methyl protons at the 9-position [3] | Km [6] [µM]
Nc1c2ccccc2nc2ccccc12 [Entry 1] | – | – | – | 15.6 | 15.6 | 15.7 | – | – | – | –
C[n+]1c2ccccc2c(N)c2ccccc21.[Cl-] [Entry 2] | – | – | – | 16.4 | 16.3 | 16.4 | – | – | – | –
Nc1ncnc2c1ncn2[C@@H]1O[C@H](COP(=O)(O)OP(=O)(O)OP(=O)(O)O)[C@@H](O)[C@H]1O [ATP] | – | – | – | – | – | – | – | – | – | 36.4
c1ccc2nc3ccccc3cc2c1 [Entry 3] | – | – | – | 29.4 | 18.8 | 10.5 | – | – | – | –
